Read-outs that look alike come from different tables or passages of the source.
Tests used:
[1] = Pharmacokinetic (PK) assay, plasma AUC; type: in vivo; conditions: mouse, PO
Procedure: Pharmacokinetics (PK) play an increasing role in drug discovery and development. Pharmacokinetics is the quantitative study of the time course of drug absorption, distribution, metabolism and/or excretion. When a drug is administered, it distributes rapidly from its administration site into the systemic blood circulation. One measure of the extent of a therapeutic agent's distribution is the area under the plasma concentration-time curve (AUC), calculated to the last measured concentration (AUCt) and extrapolated to infinity (AUCinf). AUC is thus a useful metric to quantitate drug exposure. AUC. Blood was collected from mice (N=3) to contribute to the total of 10 time points (pre-dose, 5 min, 15 min, 30 min, 1 hour, 2 hours, 4 hours, 8 hours, 12 hours and 24 hours post dose). Mice were bled on a rotating basis, each mouse contributing 3 time points to the blood collection. At the designated time points, animals were anaesthetized under isoflurane, and approximately 110 μL of blood per time point was collected via retro-orbital puncture into pre-cooled K2EDTA (anti-coagulant) tubes. Blood samples were put on wet ice and centrifuged (2000 g, 5 min at 4° C.) to obtain plasma within 30 minutes of sample collection. All samples were stored frozen at approximately −80° C. until analysis. Prior to analysis, samples were mixed with internal standard (dexamethasone) in acetonitrile, vortexed, centrifuged, and supernatant was injected for analysis. Concentration of compounds in plasma was determined using LC-MS-MS instrumentation (API 4000, Triple Quadruple with electrospray ionization; Acuity Ultra Performance Liquid Chromatography column C18, with MeOH and formic acid as organic solvents). AUC values were calculated using WinNonlin Professional 6.2 software package, non-compartmental pharmacokinetic model NCA200.

[2] = CellTiter 96 AQueous One Solution (MTS) cell proliferation assay; type: cell-based; conditions: human, MM.1S multiple myeloma cells; MM.1S cells, 72 h treatment; read-out: Cytotoxicity [EC50]
Text: The CellTiter 96® AQueous One Solution cell proliferation assay (Promega) was used on MM.1S multiple myeloma cell line to study the cytotoxic and cytostatic properties of the compounds. The assay is based on the cleavage of the tetrazolium salt, MTS, in the presence of an electron-coupling reagent PES (phenazine ethosulfate). The MTS tetrazolium compound is bioreduced by cells into a colored formazan product that is soluble in tissue culture medium. This conversion is presumably accomplished by NADPH or NADH produced by dehydrogenase enzymes in metabolically active cells. Assays are performed by adding a small amount of the CellTiter 96® AQueous One solution reagent directly to culture wells, incubating for 1-4 hours and then recording the absorbance at 490 nm with a 96-well plate reader.
The cells were seeded at 5×10^3 to 1.5×10^4 cells (depending on cell type) in each well of a 96-well plate in 100 μL of fresh culture medium and adherent cells were allowed to attach overnight. The stock solutions of the compounds were diluted in cell culture medium to obtain eight concentrations of each drug, ranging from 1 nM to 30 μM and DMSO at less than 1% v/v was used as a negative control. The resulting drug solutions were transferred onto the cells. After 72 h of treatment, 20 μl of CellTiter 96® AQueous reagent was added into each well of the 96-well assay plates and the plate was incubated at 37° C. for 1-4 hours in a humidified, 5% CO2 atmosphere. Then the absorbance of each well was recorded at 490 nm using a 96-well plate reader. In most cases, the assay was performed in triplicate and the results were presented as half maximal inhibitory concentration (IC50). Optical density versus compound concentration was plotted and analyzed using non-linear regression equations (IDBS XLfit) and the IC50 for each compound was calculated.

[3] = Brain to plasma (B:P) ratio determination; type: in vivo; conditions: brain and plasma; mouse, PO at 10 mg/kg, 2 hours post-dose
Text: The brain to plasma (B:P) ratio is one method of quantifying the relative distribution of a therapeutic agent in brain tissue to that in circulation and, as such, provides one indication of the brain penetration of a given therapeutic agent. A high brain to plasma ratio is preferred when targeting diseases localized in the central nervous system (CNS), including the brain and the cerebrospinal fluid. However, a lower brain to plasma ratio is generally preferable for non-CNS therapeutic agents to minimize brain penetration and avoid potential side effects caused by unwanted accumulation of the therapeutic agents in the brain and CNS tissue.
Brain to Plasma (B:P) Ratio. […] Following collection, brain tissue was rinsed with cold saline, dried on filter paper, weighed and snap-frozen by placing on dry ice. All samples were stored frozen at approximately −80° C. until analysis. […] Plasma samples were treated with the identical method (except homogenization step) and the concentration of compound in each matrix was calculated based on generated standard curves.

[4] = 10 mg/kg, 10 mpk, read-out: AUCInf hr * ng/mL (mouse, PO, 10 mpk)
[5] = 5 mg/kg, 5 mpk, read-out: AUCInf hr * ng/mL (mouse, PO), tested at 5 mpk

Row | AUC(0-inf) [1, 4] [ng·h/mL] | Kp at 2 h [3] | AUC(0-inf) [1, 5] [ng·h/mL] | Structure (SMILES) | EC50 at 72 h [2] [nM]
1 | 2510 |  |  | O=C(/C=C\n1cnc(-c2cc(C(F)(F)F)cc(C(F)(F)F)c2)n1)N1CC(F)C1 [Example 7, (Z)-3-(3-(3,5-bis(trifluoromethyl)phenyl)-1H-1,2,4-triazol-1-yl)-1-(3-fluoroazetidin-1-yl)prop-2-en-1-one] | < 1000
2 | 10800 | 1.8 |  | O=C(/C=C\n1cnc(-c2cc(C(F)(F)F)cc(C(F)(F)F)c2)n1)NNc1ccccn1 [Compound 71] | < 1000
3 | 2640 |  |  | CN(C)CC1CN(C(=O)/C=C\n2cnc(-c3cc(C(F)(F)F)cc(C(F)(F)F)c3)n2)C1 [Compound 25, (Z)-3-(3-(3,5-bis(trifluoromethyl)phenyl)-1H-1,2,4-triazol-1-yl)-1-(3-((dimethylamino)methyl)azetidin-1-yl)prop-2-en-1-one] | < 1000
4 | 396 |  |  | O=C(/C=C\n1cnc(-c2cc(F)cc(C(F)(F)F)c2)n1)N1CC(F)(F)C1 [Example 2, (Z)-1-(3,3-difluoroazetidin-1-yl)-3-(3-(3-fluoro-5-(trifluoromethyl)phenyl)-1H-1,2,4-triazol-1-yl)prop-2-en-1-one] | < 1000
5 | 521 |  |  | O=C(/C=C\n1cnc(-c2cc(C(F)(F)F)cc(C(F)(F)F)c2)n1)N1CCC1 [Compound 23, (Z)-1-(azetidin-1-yl)-3-(3-(3,5-bis (trifluoromethyl)phenyl)-1H-1,2,4-triazol-1-yl) prop-2-en-1-one] | < 1000
6 |  |  | 3080 | O=C(/C=C\n1cnc(-c2cc(C(F)(F)F)cc(C(F)(F)F)c2)n1)NCc1cnco1 [Example 11, (Z)-3-(3-(3,5-bis(trifluoromethyl)phenyl)-1H-1,2,4-triazol-1-yl)-N-(oxazol-5-ylmethyl)acrylamide] | < 1000
7 |  |  |  | CN(Cc1cnco1)C(=O)/C=C\n1cnc(-c2cc(C(F)(F)F)cc(C(F)(F)F)c2)n1 [Compound 22, (Z)-3-(3-(3,5-bis(trifluoromethyl)phenyl)-1H-1,2,4-triazol-1-yl)-N-methyl-N-(oxazol-5-ylmethyl)acrylamide] | 1000 to 10000
8 |  | 3.16 | 9050 | CC1(O)CN(C(=O)/C=C\n2cnc(-c3cc(C(F)(F)F)cc(C(F)(F)F)c3)n2)C1 [Example 8, (Z)-3-(3-(3,5-bis(trifluoromethyl)phenyl)-1H-1,2,4-triazol-1-yl)-1-(3-hydroxy-3-methylazetidin-1-yl)prop-2-en-1-one] | < 1000
9 |  |  |  | O=C(/C=C\n1cnc(-c2cc(C(F)(F)F)cc(C(F)(F)F)c2)n1)N1CC(O)C1 [Compound 53, (Z)-3-(3-(3,5-bis(trifluoromethyl)phenyl)-1H-1,2,4-triazol-1-yl)-1-(3-hydroxyazetidine-1-yl)prop-2-en-1-one] | < 1000
10 |  |  |  | O=C(/C=C\n1cnc(-c2cc(C(F)(F)F)cc(C(F)(F)F)c2)n1)N1CC(O)(C(F)(F)F)C1 [Compound 51, (Z)-3-(3-(3,5-bis(trifluoromethyl)phenyl)-1H-1,2,4-triazol-1-yl)-1-(3-hydroxy-3-(trifluoromethyl)azetidin-1-yl)prop-2-en-1-one] | < 1000
11 |  |  |  | O=C1CC(c2cc(C(F)(F)F)cc(C(F)(F)F)c2)CN1/C=C\C(=O)N1CC(F)(F)C1 (stereo not drawn) [Compound 64, (Z)-4-(3,5-bis(trifluoromethyl)phenyl)-1-(3-(3,3-difluoroazetidin-1-yl)-3-oxoprop-1-enyl)pyrrolidin-2-one] | > 10000
12 |  |  |  | CCN(C(=O)/C=C\n1cnc(-c2cc(C(F)(F)F)cc(C(F)(F)F)c2)n1)C(C)c1cccnc1 (stereo not drawn) [Example 10, (Z)-3-(3-(3,5-bis(trifluoromethyl)phenyl)-1H-1,2,4-triazol-1-yl)-N-ethyl-N-(1-(pyridin-3-yl)ethyl)acrylamide] | 1000 to 10000
13 |  |  |  | Cc1ncc(CN(C)C(=O)/C=C\n2cnc(-c3cc(C(F)(F)F)cc(C(F)(F)F)c3)n2)cn1 [Compound 18, (Z)-3-(3-(3,5-bis(trifluoromethyl)phenyl)-1H-1,2,4-triazol-1-yl)-N-methyl-N-((2-methylpyrimidin-5-yl)methyl)acrylamide] | 1000 to 10000
14 |  |  |  | O=C(/C=C\n1cnc(-c2cc(C(F)(F)F)cc(C(F)(F)F)c2)n1)N1CC(F)(C(=O)O)C1 [Compound 62, (Z)-1-(3-(3-(3,5-bis(trifluoromethyl)phenyl)-1H-1,2,4-triazol-1-yl)acryloyl)-3-fluoroazetidine-3-carboxylic acid] | 1000 to 10000
15 |  |  |  | Cc1ncc(CNC(=O)/C=C\n2cnc(-c3cc(C(F)(F)F)cc(C(F)(F)F)c3)n2)cn1 [Compound 13, (Z)-3-(3-(3,5-bis(trifluoromethyl)phenyl)-1H-1,2,4-triazol-1-yl)-N-((2-methylpyrimidin-5-yl)methyl)acrylamide] | 1000 to 10000
16 |  |  |  | O=C(/C=C\c1n[nH]c(-c2cc(C(F)(F)F)cc(C(F)(F)F)c2)n1)N1CC(F)(F)C1 [Compound 12, (Z)-3-(5-(3,5-bis(trifluoromethyl)phenyl)-4H-1,2,4-triazol-3-yl)-1-(3,3-difluoroazetidin-1-yl)prop-2-en-1-one] | 1000 to 10000
17 |  |  |  | NC1C2CN(C(=O)/C=C\n3cnc(-c4cc(C(F)(F)F)cc(C(F)(F)F)c4)n3)CC12 (stereo not drawn) [Compound 57, (Z)-1-(6-amino-3-azabicyclo[3.1.0]hexan-3-yl)-3-(3-(3,5-bis(trifluoromethyl)phenyl)-1H-1,2,4-triazol-1-yl)prop-2-en-1-one] | < 1000
18 |  |  |  | N#CC1CN(C(=O)/C=C\n2cnc(-c3cc(C(F)(F)F)cc(C(F)(F)F)c3)n2)C1 [Compound 54, (Z)-1-(3-(3-(3,5-bis(trifluoromethyl)phenyl)-1H-1,2,4-triazol-1-yl)acryloyl)azetidine-3-carbonitrile] | < 1000
19 |  |  |  | O=C(/C=C\n1cnc(-c2cc(C(F)(F)F)cc(C(F)(F)F)c2)n1)N1CCCC(F)(F)C1 [Example 5, (Z)-3-(3-(3,5-bis(trifluoromethyl)phenyl)-1H-1,2,4-triazol-1-yl)-1-(3,3-difluoropiperidin-1-yl)prop-2-en-1-one] | 1000 to 10000
20 | 10100 |  |  | O=C(/C=C\n1cnc(-c2cc(C(F)(F)F)cc(C(F)(F)F)c2)n1)NNc1cnccn1 [Compound 70] | < 1000
21 |  |  |  | O=C(O)C1CN(C(=O)/C=C\n2cnc(-c3cc(C(F)(F)F)cc(C(F)(F)F)c3)n2)C1 [Compound 55, (Z)-1-(3-(3-(3,5-bis(trifluoromethyl)phenyl)-1H-1,2,4-triazol-1-yl)acryloyl)azetidine-3-carboxylic acid] | 1000 to 10000
22 |  |  |  | O=C1CC(c2cc(C(F)(F)F)cc(C(F)(F)F)c2)CN1/C=C/C(=O)N1CC(F)(F)C1 (stereo not drawn) [Compound 44, (E)-4-(3,5-bis(trifluoromethyl)phenyl)-1-(3-(3,3-difluoroazetidin-1-yl)-3-oxoprop-1-enyl)pyrrolidin-2-one] | > 10000
23 |  |  |  | CN(Cc1cncnc1)C(=O)/C=C\n1cnc(-c2cc(C(F)(F)F)cc(C(F)(F)F)c2)n1 [Compound 17, (Z)-3-(3-(3,5-bis(trifluoromethyl)phenyl)-1H-1,2,4-triazol-1-yl)-N-methyl-N-(pyrimidin-5-ylmethyl)acrylamide] | 1000 to 10000
